In patent US12281118B2, “Nitrogen-containing fused heterocyclic SHP2 inhibitor compound, preparation method, and use” (SHANGHAI RINGENE BIOPHARMA CO., LTD., priority 2018, dated 2025) one finds T/C data, which are given here for one compound.

Holding throughout (format): in vivo
In test [1] the test system is KYSE520 tumor cell xenograft. The experiment in a line: Growth inhibition of xenograft in nude mice. The conditions noted are these: orally, once daily, for 21 consecutive days. The source says:
(§1) Experimental method: 1) Culturing MV 4-11/KYSE520/NCI-H358 cells in a culture medium containing 10% fetal bovine serum. Harvesting tumor cells at an exponential growth phase, and resuspending in PBS to suitable concentrations for subcutaneous tumor inoculation in nude mice. 2) Subcutaneously inoculating 2-8×10^7 tumor cells at the right back of a mouse, and resuspending the cells in PBS and matrigel (1:1); observing tumor growth regularly, and randomizing mice for administration based on tumor size and mouse body weight when tumors grow to a mean volume of ˜120 mm^3-1800 mm^3. 3) Defining the day of tumor cell inoculation as Day 0. Prior to the start of dosing, weighing all animals and measuring the tumor volume with a vernier caliper. 3) Administering orally compound of examples (prepared with water for injection containing 1% Tween80 to a desired concentration for use) at a given dose for three consecutive weeks, and giving an equal amount of solvent animals in a solvent control group. Measuring diameters of the xenograft twice a week throughout the experiment, and weighing the mice were at the same time.
(§2) The calculation formula of tumor volume (TV) is: TV=½×a×b^2, wherein a and b represent length and width, respectively. The relative tumor volume (RTV) is calculated based on the measured results using the formula: RTV=Vt/V0, wherein V0 is the tumor volume measured at the time of dosing in separate cages (i.e., Day 0) and Vt is the tumor volume at each measurement. The anti-tumor activity is evaluated by the following measures: 1) relative tumor proliferation rate T/C (%), which is calculated by the following formula: T/C (%)=(TRTV/CRTV)×100%, wherein TRTV: RTV of ae treatment group; CRTV: RTV of a negative control group; 2) inhibition rate of tumor volume growth GI %, which is calculated by the following formula: GI %=[1−(TVt−TV0)/(CVt−[…])]×100%, wherein TVt is the tumor volume at each measurement in the treatment group; TV0 is the tumor volume obtained at the time of dosing in separate cages in the treatment group; CVt is the tumor volume at each measurement in the control group; CV0 is the tumor volume obtained at the time of dosing in separate cages in the control group (specific data are shown in Table 4).

The test system of test [2] is MV 4-11 tumor cell xenograft. Briefly: Growth inhibition of xenograft in nude mice. Particulars: orally, once daily, for 21 consecutive days.
Description: as §1, §2

Test [3] relates to NCI-H358 tumor cell xenograft. Briefly: Growth inhibition of xenograft in nude mice. Particulars: orally, once daily, for 21 consecutive days.
Description: as §1, §2

Test [4] has as its system MC38 colorectal cancer xenografts. The experiment in a line: Growth inhibition of MC38 colorectal cancer xenografts in C57BL-6 mice. Particulars: 1 mg/kg, orally, once daily.
Description: as §1, with “MC38” for “MV 4-11/KYSE520/NCI-H358”, “Harvesting tumor cells at an exponential growth phase, and resuspending in PBS to suitable concentrations for subcutaneous tumor inoculation in nude mice.” left out, “[…]” for “2-8×10^7”, “˜50 mm^3-60” for “˜120 mm^3-1800”, “dose, intraperitoneally injecting an anti-PD-L1 antibody twice a week,” for “dose”, “two” for “three”
The calculation formula of tumor volume (TV) is: TV=½×a×b^2, wherein a and b represent length and width, respectively. The relative tumor volume (RTV) is calculated based on the measured results using the formula: RTV=Vt/V0, wherein V0 is the tumor volume measured at the time of dosing in separate cages (i.e., Day 0) and Vt is the tumor volume at each measurement. […]

The structures appear in SMILES notation.

Broadly, the T/C is the ratio of treated to control. Take `Cc1nc(N2CCC3(CC2)Cc2ccccc2[C@H]3N)n2ccnc2c1Sc1ccnc(N)c1Cl` [Example 1, (S)-1′-(8-((2-amino-3-chloropyridin-4-yl)thio)-7-methylimidazo [1,2-c]pyrimidin-5-yl)-1,3-dihydrospiro [indene-2,4′-piperidine]-1-amine]: the T/C in test [1] (2 mg/kg) turned out to be 30%; in test [1] (6 mg/kg) it was 18%; in test [2] (2 mg/kg) it was 28%; in test [2] (5 mg/kg), 3.0%; in test [3] (0.8 mg/kg), 39%; in test [3] (2.5 mg/kg), 13%. For the same compound, the T/C in test [4] was found to be 60%.
